Consider two compounds from publication PMC9291647, “Discovery of novel mRNA demethylase FTO inhibitors against esophageal cancer” (Journal of Enzyme Inhibition and Medicinal Chemistry, 2022).

The target of the test is fat mass and obesity-associated protein (FTO) (Homo sapiens, UniProt Q9C0B1). Description: FTO demethylase assay with ssRNA substrate, nucleosides detected by LC/MS. Type of test: biochemical.
Chain of fat mass and obesity-associated protein (FTO) (Q9C0B1 whole entry): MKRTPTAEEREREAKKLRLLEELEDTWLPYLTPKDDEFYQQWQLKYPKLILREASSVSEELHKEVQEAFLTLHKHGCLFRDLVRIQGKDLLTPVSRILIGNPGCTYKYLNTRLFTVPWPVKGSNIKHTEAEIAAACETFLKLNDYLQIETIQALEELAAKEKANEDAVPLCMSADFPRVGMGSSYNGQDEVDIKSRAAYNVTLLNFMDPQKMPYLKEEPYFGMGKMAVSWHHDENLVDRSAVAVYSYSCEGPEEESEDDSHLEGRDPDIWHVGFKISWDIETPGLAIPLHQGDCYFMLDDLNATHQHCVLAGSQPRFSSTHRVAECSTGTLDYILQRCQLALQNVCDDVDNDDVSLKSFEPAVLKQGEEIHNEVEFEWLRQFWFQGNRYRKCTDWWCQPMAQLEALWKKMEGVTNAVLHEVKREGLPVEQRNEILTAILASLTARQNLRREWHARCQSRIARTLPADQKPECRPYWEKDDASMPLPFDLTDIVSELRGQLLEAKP

What is called IC50 is the point on the concentration scale where inhibition reaches its midpoint. Read a low IC50 as greater potency. `COc1c(C)cnc(Cn2cc(CNC(=O)c3c(F)c(F)c(F)c(F)c3F)nn2)c1C` [C6, 2,3,4,5,6-Pentafluoro-N-((1-((4-methoxy-3,5-dimethylpyridin-2-yl)methyl)-1H-1,2,3-triazol-4-yl)methyl)benzamide] returned an IC50 of 0.78 µM.

`O=C(NCc1cn(Cc2nc3ccccc3[nH]2)nn1)c1c(F)c(F)c(F)c(F)c1F` [C8, N-((1-((1H-benzo[d]imidazol-2-yl)methyl)-1H-1,2,3-triazol-4-yl)methyl)-2,3,4,5,6-pentafluorobenzamide] displayed an IC50 of 8.67 µM.
